TGI and GI50 data for 16 compounds are collected here from PubChem BioAssay (NCI).

Common to all, as to experiment: NCI-60 cell line screen, 48 h
In assay [1] the test system is BT-549 breast.
Assay [2] has as its system MCF7 breast.
Assay [3] has as its system DU-145 prostate.
The subject of assay [4] is HS 578T breast.
In assay [5] the test system is XF 498 CNS.
Assay [6] concerns DMS 114 small cell lung.
Assay [7] has as its system DLD-1 colon.
Assay [8] has as its system MDA-MB-231 breast.
The subject of assay [9] is T-47D breast.
Assay [10] has as its system KM20L2 colon.
In assay [11] the test system is SNB-78 CNS.

“And” between values parts separate entries of the source, which are not always exact repeats. Equal entries are not always repeated.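 Dose response: 5 concentrations. Exposure: 48 h. Format: 96-well plates. Endpoint: linear interpolation; highest concentration if not reached. GI50: concentration for 50% inhibition of growth. TGI denotes the concentration required for complete inhibition of growth.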

As to `NC(=O)c1c[se]c(C2OC(CO)C(O)C2O)n1` (stereo unspecified), the TGI in assay [1], in [2], in assay [3], in [4], in assay [5] and in assay [6] was over 100 µM in each case. The TGI in assay [7], in assay [8] and in [9] was over 100 µM throughout.
On to `Oc1ccc(N=Nc2ccc(Cl)cc2)cc1`, for which the TGI in assay [1] stood at 32.6 µM; in [2] it was 35.9 µM; in [3] it was 30.8 µM; in [4], 73.3 µM; in assay [8] it was 24.3 µM; in assay [9] it was 67.4 µM.
For `CC1=C2C(O)C(C(C)CO)C(O)CC2(C)C(O)CC1` (stereo unspecified), the TGI in assay [10], in assay [6], in assay [11] and in assay [7] was over 100 µM in each case.
Regarding `CC(=O)O/N=C/c1ncccc1CO`, the TGI in assay [5], in assay [10], in assay [6] and in assay [7] was over 100 µM each time.
Turning to `COc1ccc(/C=C/c2cc(OC)c(OC)c(OC)c2)cc1NC(=O)/C=C/c1ccc(F)cc1`, the GI50 in assay [1] is 4.49 µM; in [2], 3.34 µM; in assay [3] it was 4.05 µM; in assay [4] it was 3.79 µM; in [8] it was 5.8 µM; in [9] it was 5.51 µM. Also, the TGI is over 100 µM in [1]; over 100 µM in assay [2]; over 40.5 µM in assay [3]; over 100 µM in [4]; over 100 µM in [8]; over 100 µM in assay [9].
As to `COc1cc(/C=C/c2cc(C(F)(F)F)[nH]c(=O)n2)ccc1OCc1ccccc1F`, the GI50 in assay [1] was 5.04 µM; in assay [2], 4.13 µM; in assay [3] it was 9.8 µM; in [4] it was 32 µM; in assay [8], 13.1 µM; in [9] it was 9.98 µM. Besides, the TGI in assay [1] is 20.6 µM; in [2] it was 17.3 µM; in [3] it was 23.3 µM; in [4], over 100 µM; in [8], 53 µM; in assay [9] it was 63.1 µM.
`CCCCC#COP(=O)(OCC)OCC`: the TGI in assay [10], in assay [6], in assay [11] and in assay [7] was over 100 µM in each case.
Take `O=[N+]([O-])c1ccc2[nH]cc(-c3c4ccsc4cc4[nH]c5ccc([N+](=O)[O-])cc5c34)c2c1`: the GI50 in [1] was 1.49 µM; in [2], 0.606 µM; in [3], 0.833 µM; in assay [4], 0.824 µM; in assay [8] it was 1.2 µM; in [9], 0.864 µM. In addition, the TGI amounted to 6.36 µM in assay [1]; 4.75 µM in [2]; 2.69 µM in assay [3]; 5.49 µM in [4]; 5.75 µM in assay [8]; 4.46 µM in [9].
`Nc1ccc(C(=O)N/C(=C\C=C\c2ccco2)c2nc3[nH]c(=S)[nH]c(=O)c3[nH]2)cc1`: the TGI in [5], in assay [10], in [11] and in assay [7] was over 100 µM throughout.
Turning to `CC1=CSC2=NC(c3ccc(Cl)c(Cl)c3)=CC(c3ccc(Cl)cc3)N12` (stereo unspecified), the GI50 in assay [1], in assay [2], in assay [3], in assay [4], in assay [8] and in assay [9] was over 100 µM each time. The TGI in assay [1], in assay [2], in assay [3], in assay [4], in assay [8] and in [9] was over 100 µM throughout.
For the compound `CCOC(=O)C(C)(C)Oc1ccc2c(=O)cc(-c3ccc(Cl)cc3)oc2c1`, the TGI in assay [5], in assay [10], in assay [6] and in assay [7] was over 100 µM throughout.
In the case of `COc1cc(C2c3cc4c(cc3[C@@H](Nc3ccc(C(=O)O)cc3)C3COC(=O)[C@H]23)OCO4)cc(OC)c1O` (stereo partly specified), the GI50 was 36.8 µM and > 17.5 µM in assay [10]; 13.9 µM and 5.44 µM in [6]; 17.2 µM and 6.86 µM in assay [7]. The TGI was over 100 µM in [10]; 47.8 µM and > 17.5 µM in [6]; 92.7 µM and 17.4 µM in assay [11]; 54.9 µM and > 17.5 µM in assay [7].
Take `CCCCCCNC(=O)C1=C(C)NC(C)=C(C(=O)NCCCCCC)C1`: the TGI in assay [1], in assay [2], in assay [3], in assay [4], in assay [8] and in assay [9] was over 100 µM each time.
In the case of `COc1cc2c(cc1OCc1ccccc1)N=C[C@@H]1C/C(=C/C(=O)NCCCN3C(=O)c4cccc5cccc(c45)C3=O)CN1C2=O`, the GI50 in [1] was 0.273 µM; in [2], 0.256 µM; in [3], 0.381 µM; in assay [4] it was 0.539 µM; in assay [8], 0.708 µM; in assay [9], 0.137 µM. The TGI in assay [1] stood at 1.08 µM; in assay [2] it was 14.3 µM; in [3] it was 11.9 µM; in assay [4], 6.51 µM; in assay [8], 6.14 µM; in [9] it was 3.06 µM.
Turning to `COc1ccc2c(c1)C(=O)CC(N)C2` (stereo unspecified), the TGI in assay [1], in assay [2], in assay [3], in [4], in assay [8] and in assay [9] was over 100 µM in each case.
Turning to `COc1cc(OC2OC(C)C(O)C(O)C2O)cc2oc(-c3ccc(O)cc3)c(CC=C(C)C)c(=O)c12` (stereo unspecified), the GI50 was 31.2 µM in assay [1]; 13.9 µM in assay [2]; 34.3 µM in [3]; 24 µM in [4]; 6.38 µM in assay [8]; 8.74 µM in assay [9]. The TGI in assay [1] is over 100 µM; in [2] it was 48.2 µM; in assay [3], over 100 µM; in assay [4], over 100 µM; in assay [8], 21.4 µM; in assay [9], 30.8 µM.
